Measured values taken from patent US20210220408A1, “ARYL HYDROCARBON RECEPTOR ANTAGONISTS AND METHODS OF USE” (Magenta Therapeutics Inc., priority 2018, published 2021).

Biological target: T1, aryl hydrocarbon receptor (AHR) (Homo sapiens, UniProt P35869)
T1 sequence (P35869 11-848): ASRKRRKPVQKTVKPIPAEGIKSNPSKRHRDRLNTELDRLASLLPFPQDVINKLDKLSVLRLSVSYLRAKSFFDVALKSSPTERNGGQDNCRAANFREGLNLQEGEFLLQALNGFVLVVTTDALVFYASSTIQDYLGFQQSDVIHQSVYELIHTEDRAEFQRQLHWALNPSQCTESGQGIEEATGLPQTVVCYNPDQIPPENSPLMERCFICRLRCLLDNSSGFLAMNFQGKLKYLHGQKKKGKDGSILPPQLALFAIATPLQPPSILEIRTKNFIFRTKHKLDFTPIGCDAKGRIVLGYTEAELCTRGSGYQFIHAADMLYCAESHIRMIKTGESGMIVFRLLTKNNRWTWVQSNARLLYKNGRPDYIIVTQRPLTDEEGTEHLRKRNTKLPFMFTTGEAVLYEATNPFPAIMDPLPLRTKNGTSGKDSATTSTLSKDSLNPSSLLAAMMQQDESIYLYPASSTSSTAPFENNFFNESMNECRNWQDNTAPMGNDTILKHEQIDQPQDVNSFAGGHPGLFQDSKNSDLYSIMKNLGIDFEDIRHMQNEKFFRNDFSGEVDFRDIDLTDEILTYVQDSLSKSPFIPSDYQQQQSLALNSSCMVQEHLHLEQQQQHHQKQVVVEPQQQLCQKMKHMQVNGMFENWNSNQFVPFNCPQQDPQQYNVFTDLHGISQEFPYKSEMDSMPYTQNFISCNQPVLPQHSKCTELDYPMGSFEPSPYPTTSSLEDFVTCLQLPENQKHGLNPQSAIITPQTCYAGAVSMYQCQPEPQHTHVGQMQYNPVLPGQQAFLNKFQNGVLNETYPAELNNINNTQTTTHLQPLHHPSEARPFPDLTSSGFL
Experiment: DRE-Luciferase reporter high-throughput screen (AHR antagonist, VAF347-activated)

Compound | IC50
Cc1ccc(-c2nc(CSc3nccn3-c3ccccc3)co2)cc1 [136A] | > 2 µM
Cc1ccc(-n2nnc(-c3ccc(Cl)cc3)n2)cc1 [110A] | 1 to 2 µM
CCOC(=O)c1ccc(Nc2nc(=O)c3cccnc3s2)cc1 [196A] | > 2 µM
Cc1ccc(N2CC[C@@H]3[C@@H]2CCN3c2ncc(F)cn2)nn1 [181A] | 1 to 2 µM
Cc1nn2c(-c3cccc(NC(=O)CN4CCCCC4)c3)nnc2c2ccccc12 [119B] | 0.2 to 0.5 µM
COc1ccc(-c2cc3ncc(-c4ccccc4)c(N)n3n2)cc1 [118A] | 1 to 2 µM
Cc1ccc(-c2cc(-c3ccccc3)c3c(N)c(S(C)(=O)=O)sc3n2)cc1 [169A] | 1 to 2 µM
COc1ccc(OCCSc2nc3ccc(Br)cc3[nH]2)cc1 [112A] | 1 to 2 µM
O=c1[nH]nc(CNc2ccc(Cl)cc2Cl)c2ccccc12 [compound 156] | 0.5 to 1 µM
Cc1cc2ccccc2n2c(SCC(=O)Nc3ccccc3F)nnc12 [187A] | > 2 µM
Cn1c(COc2cccc3ccccc23)nc2ccccc21 [67B] | 1 to 2 µM
CC(=O)Nc1cc(Cl)c(-c2ccc([N+](=O)[O-])o2)c(Cl)c1 [101B] | 0.2 to 0.5 µM
COC(=O)c1cnn(-c2cc(Nc3c(F)cccc3F)ncn2)c1N [compound 86] | 0.2 to 0.5 µM
Cc1ccccc1NC(=O)c1cc(-c2cnc(-c3ccccc3)nc2)cn1C [12B] | 1 to 2 µM
COc1ccc(N2CC(c3ccc(F)cc3)=CC2=O)cc1 [152A] | 1 to 2 µM
Cc1nc(NC(=O)c2cc3nc(N(C)C)n(-c4ccccc4)c3s2)sc1C [49A] | 1 to 2 µM
NC(=O)c1cc(-c2ccc(Cl)s2)nc2ccccc12 [156A] | 1 to 2 µM
Cc1ccc(-c2cc(C(=O)NCc3cccnc3)c3cc(Br)ccc3n2)cc1 [155A] | 1 to 2 µM
FC(F)(F)c1nnc2ccc(N3CCN(c4ccccc4)CC3)nn12 [73A] | > 2 µM
Clc1ccc(-c2nc3cc(Br)cnc3[nH]2)cc1 [72B] | < 0.2 µM
COc1ccc(Nc2nn(-c3ccccc3)c3c2C(=O)CCC3)cc1 [177A] | 1 to 2 µM
Cc1cccnc1NC(=O)c1cc2c(ccc3ccccc32)[nH]1 [51A] | 1 to 2 µM
Cc1cccc(CSc2nncc3ccccc23)c1 [95B] | 0.5 to 1 µM
CCCc1cc(C(=O)N2CCC(C3CCCCC3)C2)[nH]n1 (stereo not drawn) [106A] | 1 to 2 µM

Compound | IC50
O=[N+]([O-])c1ccc(C2COC(c3ccc(Cl)cc3)O2)cc1 (stereo not drawn) [102B] | 1 to 2 µM
CS(=O)(=O)c1csc(C(=O)Nc2cccc(Cl)c2)c1Cl [18B] | > 2 µM
CSc1nc2cc(-c3ccc(Cl)cc3)nn2c(N)c1C#N [69B] | < 0.2 µM
CCOC(=O)c1sc(NC(=O)c2sccc2C)cc1C [compound 44] | 0.5 to 1 µM
Cc1cccc(NC(=O)c2ccc3c(c2)CC(C)O3)c1 (stereo not drawn) [38A] | > 2 µM
Cc1ccc(CS(=O)(=O)c2ccc(C(F)(F)F)cn2)cc1 [92A] | 1 to 2 µM
CC(=O)c1cc(NC(=O)c2ccc(Cl)cc2)c(=O)n(Cc2ccc(Cl)cc2)c1C [29A] | 1 to 2 µM
O=C(Nc1cnc2ccc(C(F)(F)F)cn2c1=O)OCc1ccccc1 [compound 151] | 0.5 to 1 µM
COc1ccc(N2CCN(c3nc(OC)nc(OC)n3)CC2)cc1 [68A] | 1 to 2 µM
N#Cc1ccc(C(=O)Nc2ccc(Cl)c(C#N)c2)cc1 [7A] | 1 to 2 µM
Cc1cc(C)n(-c2ccc(NC(=O)c3ccc(OC(F)F)cc3)cc2F)n1 [9A] | > 2 µM
Cc1ccc(C(=O)Nc2nc3c(C)cc(C)cc3s2)cc1 [22B] | 1 to 2 µM
Cc1ccc(NC(=O)c2cc3ccccc3n(C)c2=O)cc1 [29B] | 1 to 2 µM
Nc1nccc(-c2cc(-c3cccc(C(F)(F)F)c3)no2)n1 [80B] | 0.5 to 1 µM
COc1ccc(Nc2oc(-c3ccccc3C)nc2C#N)cc1 [78B] | 0.5 to 1 µM
OCc1cc(Cl)c(OCc2ccc(F)cc2)c(Cl)c1 [90B] | 1 to 2 µM
CN(C)C(=O)Oc1ccc(-c2cn3cc(C(F)(F)F)ccc3n2)cc1 [compound 103] | 0.5 to 1 µM
CCOc1ccc(NC(=O)c2c(C)coc2C)cc1 [11B] | 0.5 to 1 µM
CC(C)CCNC(=O)c1cc2c(=O)n(C)c3ccccc3c2s1 [compound 145] | 0.5 to 1 µM
COc1cccc(-c2ccc(SCc3cccnc3)nn2)c1 [89A] | > 2 µM
COC(=O)c1sc(-c2ccc(CC(C)C)cc2)cc1N [146A] | 1 to 2 µM
CC(=O)Nc1cn(-c2ccccc2)nc1-c1ccc(Cl)s1 [55B] | 0.5 to 1 µM
O=C(Nc1ccc(N2CCc3sccc3C2)nc1)c1cc(Br)c[nH]1 [32A] | 1 to 2 µM
c1ccc2nc(SCc3nc4ccccc4[nH]3)ccc2c1 [65B] | 1 to 2 µM

Compound | IC50
CCCNC(=O)c1cc2sc(Cl)cc2n1C [180A] | > 2 µM
O=C(Nc1ccc(N2CCC(C(F)(F)F)CC2)nc1)c1cccc(Cl)c1 [13A] | > 2 µM
CCNC(=O)c1sc2ncc(C(=O)c3ccc(C)cc3)n2c1C [compound 66] | 0.2 to 0.5 µM
Cc1c(COc2ccccc2C#N)cccc1[N+](=O)[O-] [88B] | 0.2 to 0.5 µM
CNS(=O)(=O)c1ccc2c(c1)CCN2C(=O)c1ccn(-c2cccc(F)c2)n1 [107A] | 1 to 2 µM
Fc1ccc(-c2cn(-c3ccc4nnc(C(F)(F)F)n4n3)cn2)cc1 [compound 108] | 0.5 to 1 µM
CN(C)c1ccnc2sc(C(=O)c3ccccc3)c(N)c12 [106B] | < 0.2 µM
c1ccc(-c2ccc(N3CCOCC3)s2)cc1 [100B] | > 2 µM
O=C(Nc1ccc(-c2nccs2)cc1)c1ccc(CN2C(=O)CNC2=O)cc1 [10A] | 1 to 2 µM
Fc1ccc(-c2cc(N3CCCCC3)on2)cc1 [81B] | > 2 µM
CCOc1ccc(C(=O)Nc2ccccc2C(N)=O)cc1 [7B] | 1 to 2 µM
CN(C)c1oc(-c2ccc(COc3ccccc3)o2)nc1C#N [151A] | 1 to 2 µM
CC(=O)c1csc(COc2cc(Cl)cc(Cl)c2)n1 [55A] | 1 to 2 µM
O=[N+]([O-])c1cccc(-c2ccc(SCc3ccccc3F)nn2)c1 [48B] | 0.5 to 1 µM
Cc1c(COc2ccccc2C#N)noc1-c1ccc(F)cc1 [129A] | 1 to 2 µM
FCCCSc1nnc(-c2cc3cc4ccccc4nc3s2)o1 [compound 155] | 0.5 to 1 µM
N#Cc1ccccc1COc1ccc(-n2cnnn2)cc1 [compound 154] | 0.5 to 1 µM
CNC(=O)c1ccsc1NC(=O)c1cccc(Oc2ccccc2)c1 [16B] | 1 to 2 µM
Cc1c(C(=O)Nc2ccccc2)nnn1Cc1ccccc1 [26A] | 1 to 2 µM
O=C(Nc1ccc2[nH]c(-c3ccc(Br)o3)nc2c1)c1ccc([N+](=O)[O-])cc1 [41A] | > 2 µM
CC(C)c1nc2ccc(NC(=O)c3ccc(F)cc3)cc2[nH]1 [37A] | 1 to 2 µM
Cn1c(N)c(C(=O)CSc2ccc(F)cc2)c(=O)n(C)c1=O [195A] | 1 to 2 µM
Cc1ccc(C(=O)Nc2cc(C(C)(C)C)on2)cc1 [25A] | > 2 µM
Cc1cc(C)n(CC(C)Nc2ccc(Cl)c(C#N)n2)n1 (stereo not drawn) [91A] | 1 to 2 µM

Compound | IC50
COc1ccnc(Sc2ccc(Cl)cc2)c1C#N [94A] | 1 to 2 µM
O=C(CNC1=NS(=O)(=O)c2ccccc21)OCc1cn(-c2ccccc2)nc1-c1ccccc1 [58B] | > 2 µM
COc1ccc(Nc2ccc3ccccc3n2)cc1Cl [157A] | 1 to 2 µM
FC(F)(F)c1ccc(N/N=C/c2ccc(Cl)cc2)nc1 [45B] | 1 to 2 µM
CCC(=O)Nc1ccc(Cl)c(NC(=O)c2ccc(OC(C)C)cc2)c1 [6B] | 0.5 to 1 µM
CCOC(=O)c1cc(-c2ccc(F)cc2)[nH]c1C [100A] | > 2 µM
Cc1ccc(-c2nc(Cn3cnc(C#N)n3)co2)c(C)c1 [134A] | 1 to 2 µM
COc1cccc(C(=O)Nc2cnc(-c3ccccc3)nc2)c1 [16A] | 1 to 2 µM
Cc1nc(N2CCN(c3ccccc3F)CC2)nc2c1C(=O)CCC2 [77A] | 1 to 2 µM
Cn1nc(N2CCN(c3ccccc3Cl)CC2)c(=O)n(C)c1=O [42B] | 0.2 to 0.5 µM
Cc1ccc(OCc2cc(=O)n3ccsc3n2)cc1C [113B] | 1 to 2 µM
CCN(CC)c1ncnc2sc(-c3ccccc3)cc12 [170A] | 1 to 2 µM
COC(=O)c1cccc(NC(=O)c2nsc3ccccc23)c1 [compound 33] | 0.2 to 0.5 µM
CCOC(=O)Nc1ccc(-n2ccc(C)n2)cc1 [57B] | 1 to 2 µM
Cc1ccc2cc(NC(=O)c3cccc4c3OC(C)(C)C4)ccc2n1 [50A] | > 2 µM
O=C(NCCn1nc(-c2cccs2)ccc1=O)c1cccs1 [194A] | > 2 µM
Cc1nn(-c2nc3ccccc3[nH]2)c2c1C(=O)CC(c1cccs1)C2 (stereo not drawn) [66B] | 1 to 2 µM
O=C(Nc1ccc(OC(F)(F)F)cc1)c1ccc(F)cc1 [6A] | 1 to 2 µM
COc1ccc(NC(=O)c2noc3c2CC(C)CC3)cc1 (stereo not drawn) [30B] | 1 to 2 µM
CN1CCN(c2nc(-c3cc(F)ccc3F)cs2)CC1 [56A] | > 2 µM
CCOC(=O)c1sc(NC(=O)c2cn3ccccc3n2)cc1C [compound 40] | < 0.2 µM
CCC(=O)N1CCc2nc(-c3ccccc3)sc2C1 [compound 147] | 0.5 to 1 µM
O=C(Nc1cccc(F)c1)Nc1ccc2c(c1)C(=O)OC2 [96B] | > 2 µM
Cc1nn(-c2ccccc2)c(N)c1-c1nc(-c2ccc(Cl)cc2)cs1 [59A] | > 2 µM
